# From patent US9452170B2, “Compounds and methods for inducing chondrogenesis” (The California Institute for Biomedical Research, priority 2013, dated 2016)
# System: Human MSCs
# Experiment: Human chondrocyte differentiation assay (immunostaining for type II collagen, Sox9 and COMP)
# Format: cell-based
# Details: 168 h, compound 1 μM, 7 days, vs DMSO vehicle, read-out: Biological Activity (increase in staining intensity compared to vehicle control)
# Procedure: Human MSCs (50,000) were plated into each well of a 96-well plate and cultured overnight. Compounds (in DMSO solution) were added to the cells at a final concentration of 1 μM, and the cells were cultured for 7 days at 5% CO2, 37° C. The cells were fixed with 10% formalin solution at room temperature for 10 min, and immunostained using antibodies specific for type II collagen (Abcam), Sox9 (Santa Cruz) and cartilage oligomeric matrix protein (COMP, Santa Cruz), and fluorescently labeled secondary antibodies (Li-Cor). The total intensity of the staining was measured using Oddyssey CLx imaging system (Li-Cor). Vehicle (DMSO) was used as control to determine the basal level of chondrocyte differentiation. […] Representative data are shown in Table 1 [A: >50% increase in staining intensity compared to vehicle control; B: 30-50% increase in staining intensity compared to vehicle control].
row,SMILES,activation at 1 µM [%]
1,Cc1cccc(C(=O)Nc2ccc(CCCO)cc2)c1C(=O)O [Compound 189],> 50
2,N#Cc1cc(NC(=O)c2ccccc2C(=O)O)ccc1Cl [Compound 2],30 to 50
3,COC(=O)c1ccccc1NC(=O)Nc1cccc(C(C)=O)c1 [Compound 193],30 to 50
4,O=C(O)c1ccccc1C(=O)Nc1ccc(C(F)(F)F)c(F)c1 [Compound 10],30 to 50
5,Cc1cc(NC(=O)c2ccccc2C(=O)O)n[nH]1 [Compound 82],> 50
6,CS(=O)(=O)Nc1ccccc1C(=O)Nc1ccc(Br)cc1 [Compound 46],30 to 50
7,O=C(O)c1ccc(CNC(=O)c2cccc(Cl)c2C(=O)O)cc1 [Compound 99],30 to 50
8,N#Cc1ccc(C(=O)Nc2cnccc2C(=O)O)cc1 [Compound 54],30 to 50
9,O=C(Nc1ccccc1S(=O)(=O)N1CCOCC1)c1ccccc1F [Compound 118],30 to 50
10,COc1cc(NC(=O)c2ccccc2C(=O)O)ccc1CCCO [Compound 178],30 to 50
11,N#Cc1cc(F)cc(NC(=O)c2ccccc2C(=O)O)c1 [Compound 37],> 50
12,COc1cccc(C(=O)NCc2ccc(C(=O)O)cc2)c1C(=O)O [Compound 103],> 50
13,N#Cc1ccccc1NC(=O)c1ccccc1C(=O)O [Compound 70],> 50
14,O=C(O)c1ccccc1C(=O)NCCOc1ccccc1 [Compound 81],30 to 50
15,O=C(Nc1ccccc1)Nc1ccccc1C(=O)O [Compound 203],30 to 50
16,CS(=O)(=O)Nc1ccccc1C(=O)Nc1ccc(CC#N)cc1 [Compound 45],30 to 50
17,O=C(O)Cc1ccccc1C(=O)Nc1ccc(CCO)cc1 [Compound 47],30 to 50
18,CC(=O)Cc1ccc(CNC(=O)c2ccccc2C(=O)O)cc1 [Compound 166],30 to 50
19,CC(=O)c1ccccc1NC(=O)Nc1ccccc1C(=O)O [Compound 205],30 to 50

row,SMILES,activation at 1 µM [%]
1,O=C(O)c1ccccc1C(=O)Nc1ccc(-c2ncc[nH]2)cc1 [Compound 74],30 to 50
2,COc1ccc2c(c1)C(=O)N(c1ccc(C(=O)O)cc1)C2=O [Compound 16],> 50
3,COCCS(=O)(=O)Nc1ccccc1C(=O)Nc1ccc(C#N)cc1 [Compound 79],30 to 50
4,CN(c1ccccc1C(=O)Nc1ccc(C#N)cc1)S(C)(=O)=O [Compound 78],30 to 50
5,CC(=O)N(C)Cc1cccc(NC(=O)c2ccccc2C(=O)O)c1 [Compound 50],30 to 50
6,Cc1ncsc1NC(=O)c1ccccc1C(=O)O [Compound 22],30 to 50
7,O=C(O)c1ccccc1C(=O)Nc1ccon1 [Compound 80],30 to 50
8,COC(=O)c1ccccc1NC(=O)Nc1cccc(C(F)(F)F)c1 [Compound 195],30 to 50
9,Cc1cnccc1NC(=O)c1ccccc1C(=O)O [Compound 67],> 50
10,CC(CO)c1ccc(NC(=O)c2ccccc2C(=O)O)cc1 (centres unmarked) [Compound 84],> 50
11,CNS(=O)(=O)c1ccc(N2CCCC2=O)cc1 [Compound 28],30 to 50
12,COC(=O)c1ccccc1NC(=O)Nc1ccc(C(C)=O)cc1 [Compound 206],30 to 50
13,COC(=O)c1ccccc1NC(=O)Nc1ccc2ccccc2c1 [Compound 201],30 to 50
14,O=C(Nc1ccc(CCCO)cc1)c1cccc(F)c1C(=O)O [Compound 181],30 to 50
15,N#Cc1ccc(F)c(NC(=O)c2ccccc2C(=O)O)c1 [Compound 34],30 to 50
16,O=C(O)c1ccccc1C(=O)Nc1cccc(OC(F)(F)F)c1 [Compound 19],> 50
17,O=C(CC1OC(=O)c2ccccc21)c1ccccc1Cl (centres unmarked) [Compound 41],> 50
18,O=C(O)c1ccccc1C(=O)Nc1ccc(OCCO)cc1 [Compound 105],30 to 50
19,NS(=O)(=O)c1ccc(N2C(=O)c3ccccc3C2=O)cc1 [Compound 15],30 to 50
